Assay [1] addresses T1, recombinant hGYS1/GN1 protein (Homo sapiens, UniProt P13807).
T1 sequence (P13807 1-737): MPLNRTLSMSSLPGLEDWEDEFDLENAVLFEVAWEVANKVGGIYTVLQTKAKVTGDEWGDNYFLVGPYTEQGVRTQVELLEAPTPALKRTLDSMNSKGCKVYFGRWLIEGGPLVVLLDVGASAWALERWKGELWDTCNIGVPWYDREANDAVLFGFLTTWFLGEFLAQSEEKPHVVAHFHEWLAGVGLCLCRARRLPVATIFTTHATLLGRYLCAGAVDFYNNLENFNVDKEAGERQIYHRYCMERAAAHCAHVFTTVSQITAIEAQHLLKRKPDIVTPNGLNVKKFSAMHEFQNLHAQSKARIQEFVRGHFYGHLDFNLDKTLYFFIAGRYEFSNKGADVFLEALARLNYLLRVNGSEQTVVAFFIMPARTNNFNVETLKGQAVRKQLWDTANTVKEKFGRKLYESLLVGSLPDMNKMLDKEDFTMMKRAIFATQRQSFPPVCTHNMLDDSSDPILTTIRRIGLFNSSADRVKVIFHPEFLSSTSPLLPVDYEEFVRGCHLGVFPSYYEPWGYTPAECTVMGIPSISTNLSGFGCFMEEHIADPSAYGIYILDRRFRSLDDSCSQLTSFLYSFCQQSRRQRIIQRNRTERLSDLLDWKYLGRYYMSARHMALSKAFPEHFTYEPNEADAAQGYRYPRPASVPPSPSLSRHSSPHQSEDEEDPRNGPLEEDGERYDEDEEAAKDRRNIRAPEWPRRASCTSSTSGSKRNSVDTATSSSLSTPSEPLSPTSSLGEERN
T1 sequence (P46976 1-350 partner): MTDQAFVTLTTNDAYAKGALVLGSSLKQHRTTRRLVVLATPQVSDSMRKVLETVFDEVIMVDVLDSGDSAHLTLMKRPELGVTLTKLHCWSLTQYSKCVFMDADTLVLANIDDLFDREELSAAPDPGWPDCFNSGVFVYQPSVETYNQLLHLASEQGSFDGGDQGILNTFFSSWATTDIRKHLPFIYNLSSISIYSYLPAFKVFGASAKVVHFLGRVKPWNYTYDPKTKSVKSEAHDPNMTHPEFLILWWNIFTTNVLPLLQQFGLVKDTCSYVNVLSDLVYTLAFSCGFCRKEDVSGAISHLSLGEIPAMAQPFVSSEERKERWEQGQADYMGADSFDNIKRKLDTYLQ
Kind of assay: GYS1 coupled enzyme assay (PK/LDH). In kind it is biochemical. The settings on record: geometric mean of at least 2 assay runs; NADH absorbance at 340 nm. Put shortly: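 Recombinant hGYS1/GN1 (50 nM) with 0.8 mM UDP-glucose, 0.2% glycogen and 1 mM glucose-6-phosphate in Tris pH 7.5, 2.5% DMSO. UDP formation coupled via PK/LDH to NADH oxidation, read at 340 nm over 10 min. Control-normalized slopes fit to Hill equation; IC50 as geometric mean of ≥2 runs.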

The subject of assay [2] is glycogen synthesis in HeLa cells (hGYS1). Kind of assay: GYS1 cell based assay (glycogen digestion, Glucose-glo). The settings on record: Homo sapiens, 24 h incubation, 20 mM glucose, geometric mean of at least 2 runs, read-out: Cellular IC50. The source says: The GYS1 cell based assay is a bioluminescent assay that quantifies the glucose resulting from glycogen digestion; the quantified glucose is an indirect measure of GYS1 glycogen synthesis. Newly synthesized glycogen is digested using Glucoamylase; the resulting glucose is quantified by using the Glucose-glo assay kit from Promega. Glucose-glo works by coupling glucose oxidation and NADH production with a bioluminescent system that is activated with NADH. Glucose is oxidized by Glucose dehydrogenase and the reaction reduces NAD+ to NADH; NADH activates Reductase which reduces a pro-luciferin Reductase Substrate to luciferin. Luciferin is detected in a luciferase reaction using Ultra-Glo rLuciferase and ATP, and the luminesce produced is proportional to the glucose in the sample. The luminescence is measured as a single point read in a plate reader.
Compounds that inhibit the hGYS1 enzyme and, subsequently, the glycogen synthesis in cells, were tested using assay ready plates (white, clear bottom 384 well plates) in a final DMSO reaction volume of 1% DMSO. Compounds in the assay ready plates were mixed with media with no additives, except for 20 mM glucose prior to cell addition. HeLa cells were starved in media with no additives, except for 1× Glutamax for 24 h. Starved HeLa cells were plated, in a 1:1 ratio to the media in the assay ready plate and incubated for 24 h at 37° C. and 5% CO2. Cells were washed in 1×PBS buffer and lysed in lysis buffer containing 50% 1×PBS and 25% 0.3 N HCl of the final volume in the well or reaction volume; cells were incubated with lysis buffer for 10 minutes and quenched with the remaining 25% of the reaction volume that consisted of 450 mM Tris pH 8.0. Lysates were mixed in a 1:1 ratio with Glucoamylase in 100 mM Sodium Acetate buffer, pH 5.3; the mixture was incubated for 1 h at 37° C. The digested lysate was mixed in a 1:1 ratio with Glucose-glo detection mixture as per vendor recommendations (Luciferase detection buffer, Reductase, Reductase substrate, Glucose dehydrogenase, and NAD) in read-out plates (solid white 384-well plates) and incubated for 1 h at RT. The plates were read using a plate reader with luminescence capabilities. Each compound concentration Relative Luminescence Unit (RLU) was averaged and normalized to the average RLU of the positive and negative controls to obtain a percentage inhibition. The normalized data vs. concentration was plotted; to determine the half-maximal concentration (IC50), the Levenberg-Marquardt algorithm was used to fit a Hill equation to the dose response data.
The results are shown in Table 4 below, which reports the IC50 of each compound. Unless otherwise specified, IC50 values are reported as the geometric mean of at least 2 assay runs on separate days. As shown in the table below, the compounds of the present invention are potent inhibitors of human GYS1. […] Each run represents the average of a technical replicate, where each compound was assayed twice in the same plate.

Consider four molecules from patent US20260085034A1, “N-(BENZHYDRYL)CYCLOALKYLCARBOXAMIDE DERIVATIVES AS INHIBITORS OF GLYCOGEN SYNTHASE 1 (GYS1) AND METHODS OF USE THEREOF” (Maze Therapeutics, Inc., priority 2022, published 2026).

In general, IC50 refers to the concentration that inhibits the measured activity by half.

Take `O=C(N[C@@H](c1ccccc1)c1ccc(C2CC2)c(F)n1)[C@H]1C[C@@H]1F` [compound 2, (1R,2S)-N-((S)-(5-cyclopropyl-6-fluoropyridin-2-yl)(phenyl)methyl)-2-fluorocyclopropane-1-carboxamide]: the half-inhibitory concentration (IC50) in assay [1] was found to be 1140 nM; in assay [2], 6520 nM.
With `CC(C)c1ccc([C@@H](NC(=O)[C@H]2C[C@@H]2F)c2ccc3cn[nH]c3c2)nc1F` (single isomer, unassigned) [compound 3], the half-inhibitory concentration (IC50) in assay [1] was 55 nM; in assay [2], 1510 nM.
The like results for `CC(C)c1ccc([C@@H](NC(=O)[C@H]2C[C@@H]2F)c2cccc(-c3ccn[nH]3)c2)nc1F` (single isomer, unassigned) [compound 4] were, in that order, 156 nM and 2790 nM.
Consider `CC(C)c1ccc([C@@H](NC(=O)[C@H]2C[C@@H]2F)c2cccc3[nH]c(=O)[nH]c23)cc1F` (single isomer, unassigned) [compound 5], for which the values for the IC50 in assay [1] and in assay [2] were 131 nM and 1060 nM, respectively.
